# Measurements: article PMC8095338 (Neuro-oncology Advances, 2021)
# Where “and” joins values, the source holds several entries; their conditions need not be identical. Identical values can stand only once. Like-named read-outs stand apart in the source and are kept apart here.
# Key:
# [1] = test system: ERK phosphorylation (p-ERK); experiment: Tissue PD: p-ERK/ERK by capillary western (Wes); type: in vivo, minipig; details: for inhibition at 7.3 mg/kg: Sus scrofa, po; for p-ERK Inhibition: ND = Not detected
# Method: WT (n = 8) and NF1 (n = 8) minipigs received a single human equivalent oral dose of 450 mg (7.3 mg/kg). Untreated WT (n = 4) and NF1 (n = 4) minipigs were also enrolled as controls. All animals were euthanized 2 h after drug administration. Tissue samples were collected from each animal at the same approximate locations and divided for analysis.
# PD analysis in blood was performed as described in a previous study, with some modifications.[13] […] Samples were stimulated with phorbol 12-myristate 13-acetate (PMA) (200 nM) or phosphate-buffered saline for 10 min at 37°C within 1 h of being drawn. Red blood cells were removed using standard ammonium-chloride-potassium (ACK) lysis. Peripheral blood mononuclear cells (PBMCs) were snap-frozen as dry pellets and stored at −80°C until analysis. Protein lysates from PBMCs were prepared as described in a previous study.[13] For tissues, protein lysates were prepared by transferring ~[…] of snap frozen tissue to a 1.7-mL microfuge tube containing radioimmunoprecipitation lysis buffer with protease and phosphatase inhibitors. The samples were then homogenized using a rotor-stator homogenizer for 2–4 cycles of 20 s and centrifuged for 10 min at 4°C. Concentrations were measured using the Pierce BCA Protein assay kit (Thermo #23227), according to the manufacturer’s instructions. A capillary western blot assay was performed on a Wes system (ProteinSimple 004–600) according to the manufacturer’s instructions using a 12–230 kDa Separation Module (ProteinSimple SM-W004) and Anti-Rabbit Detection Module (ProteinSimple DM-001). Lysates were loaded at 1 mg/mL and instrument default settings were used. Primary antibodies against Phospho-p44/42 ERK1/2 (p-ERK) (Cell Signaling Technologies #4370S) and p44/42 ERK1/2 (ERK) (Cell Signaling Technologies #4695S) were used at 1:100 dilution. Peaks of the appropriate molecular weight (42/44 kilodaltons) were detected in the resulting electropherograms and chemiluminescent signal was quantified by calculating the area under the peaks. The relative intensity of p-ERK to total ERK was then calculated as a ratio (p-ERK/ERK). To discriminate low p-ERK signals from background, the peak signal-to-noise (S/N) ratio given by the software was ≥10, and the peak height/baseline ratio was ≥3.[27]
# [2] = Plasma PK study in WT and NF1 minipigs (LC-MS/MS, noncompartmental); type: in vivo, minipig; details: for AUC: read-out: AUC0?∞
# Method: Plasma isolation was performed as described in a previous study.[13] […] Tissues were harvested and immediately transferred to cryovials and stored at −80°C until analysis.
# Standard curves and controls were generated using corresponding untreated tissue. Skin tissue was treated with collagenase, and all organ tissues were homogenized. Liquid extraction with ethyl acetate was then performed, followed by analysis. […] The chromatographic separation was performed as described.[13] Mass spectrometric detection was performed using multiple reaction monitoring in positive ionization mode. […] Ion source gases 1 and 2 were set at 50 and 50 psi, respectively; the curtain gas was at 20 psi and the collision gas at 4 psi. […] Data acquisition was performed with analyst 1.4.1 software (MDS-SCIEX).
# The PK parameters included AUC–time curve from time 0 to ∞ (linear up, log down), Cmax, Tmax, and T1/2.
# [3] = cited from earlier work; for maximum tolerated dose: twice daily
# p-ERK = experiment: Immunohistochemistry for p-ERK in minipig tissues; type: in vivo
# Method: Formalin-fixed paraffin-embedded minipig tissue including cerebral cortex, cross sections of optic nerve and sciatic nerve, and skin were sectioned. Immunohistochemical staining for phosphor-p44/p42 MAPK (ERK1/2) (Thr202/Tyr204) (Cell Signaling Technology Catalog #4370, Rabbit mAb, 1:100 dilution) was performed using 5 μm sections on a Thermo Fisher Scientific Autostainer 360 (Thermo Fisher Scientific). […] In the skin, epidermis was scored as no (0) or low (1) (<20 epidermal cells per 400× magnification) or high (2) (>20 epidermal cells per 400× magnification) immunoreactivity.
# [4] = Dose-finding study, plasma PK in wild-type minipigs; type: in vivo, minipig; details: for Cmax: female, WT minipig, plasma (data not shown)
# Method: This was conducted to determine the dose required to reach the human equivalent therapeutic exposure. Human equivalent doses of 50, 75, 300, and 600 mg were tested. Each dose was administered orally to a 5-month-old wild-type female minipig. Blood was collected immediately prior to drug administration (T = 0) and 1, 2, 6, and 24 h after drug administration.
# [5] = female, minipig, po, 7.3 mg/kg, individual NF1 F minipigs, single oral 7.3 mg/kg
# [6] = female, minipig, po, 7.3 mg/kg, individual WT F minipigs, single oral 7.3 mg/kg
# [7] = individual NF1 F minipigs, single oral 7.3 mg/kg, 7.3 mg/kg
# [8] = individual NF1 M minipigs, single oral 7.3 mg/kg, 7.3 mg/kg
# [9] = individual WT F minipigs, single oral 7.3 mg/kg, 7.3 mg/kg
# [10] = individual WT M minipigs, single oral 7.3 mg/kg, 7.3 mg/kg
# [11] = minipig, po, 7.3 mg/kg, all 16 minipigs (WT and NF1), median (range), single oral 7.3 mg/kg
# [12] = minipig, po, 7.4 mg/kg, NF1 minipigs, 7.4 mg/kg single oral dose, median (range)
# [13] = minipig, po, 7.4 mg/kg, WT minipigs, 7.4 mg/kg single oral dose, median (range)
compound,measurement,setting,value
Cn1cnc2c(F)c(Nc3ccc(Br)cc3Cl)c(C(=O)NOCCO)cc21 [selumetinib],inhibition at 7.3 mg/kg,"[1]; 2 h, NF1 minipigs, cerebral cortex, 2 h after single oral 7.3 mg/kg, vs untreated controls, change not significant, read-out: p-ERK Inhibition",71%
same,inhibition at 7.3 mg/kg,"[1]; 2 h, NF1 minipigs, optic nerve, 2 h after single oral 7.3 mg/kg, vs untreated controls, read-out: p-ERK Inhibition",60%
same,inhibition at 7.3 mg/kg,"[1]; 2 h, NF1 minipigs, sciatic nerve, 2 h after single oral 7.3 mg/kg, vs untreated controls, read-out: p-ERK Inhibition",60%
same,inhibition at 7.3 mg/kg,"[1]; 2 h, WT minipigs, sciatic nerve, 2 h after single oral 7.3 mg/kg, vs untreated controls, read-out: p-ERK Inhibition",67%
same,inhibition at 7.3 mg/kg,"[1]; 2 h, all minipigs (WT and NF1), 2 h after single oral 7.3 mg/kg, read-out: mean inhibition of p-ERK in sciatic nerve",64%
same,inhibition at 7.3 mg/kg,"[1]; 2 h, all minipigs (WT and NF1), 2 h after single oral 7.3 mg/kg, read-out: mean inhibition of p-ERK in skin",95%
same,p-ERK Inhibition,"[1]; WT minipigs, cerebral cortex (subcortical white matter), 2 h after single oral 7.3 mg/kg, vs untreated controls",not observed
same,p-ERK Inhibition,"[1]; WT minipigs, optic nerve, 2 h after single oral 7.3 mg/kg, vs untreated controls",not observed
same,mean inhibition of p-ERK in skin,"[1]; all minipigs (WT and NF1), 2 h after single oral 7.3 mg/kg, 7.3 mg/kg",94%
same,p-ERK level in skin after selumetinib,"[1]; all minipigs, single oral 7.3 mg/kg, 2 h, compared to untreated minipigs",nearly undetectable levels
same,Clast,"[2]; all 16 minipigs (WT and NF1), median (range), single oral 7.3 mg/kg",0.0227 µg/mL
same,k el,"[2]; female, minipig, individual WT F minipigs, single oral 7.3 mg/kg",2.78e-05 s⁻¹
same,half-life,[2]; [5],7.5 h
same,AUC,[2]; [5],3.56 µg·h/mL
same,Cmax,"[2]; female, minipig, po, 7.3 mg/kg, individual NF1 F minipigs, single oral 7.3 mg/kg, read-out: Cmax",0.812 µg/mL
same,half-life,[2]; [6],7.1 h
same,AUC,[2]; [6],3.68 µg·h/mL
same,Cmax,"[2]; female, minipig, po, 7.3 mg/kg, individual WT F minipigs, single oral 7.3 mg/kg, read-out: Cmax",0.636 µg/mL
same,Kel,"[2]; individual NF1 F minipigs, single oral 7.3 mg/kg",0.1 h⁻¹
same,AUC0?∞,[2]; [7],5.896 µg·h/mL and 5.255 µg·h/mL and 4.287 µg·h/mL
same,Cmax,[2]; [7],0.678 µg/mL and 0.633 µg/mL and 0.571 µg/mL
same,T1/2,[2]; [7],7.6 h and 8.0 h and 8.2 h
same,Tmax,[2]; [7],2.0 h and 0.5 h
same,AUC0?∞,[2]; [8],4.116 µg·h/mL and 6.092 µg·h/mL and 4.344 µg·h/mL
same,Cmax,[2]; [8],1.48 µg/mL and 0.294 µg/mL and 0.766 µg/mL and 0.547 µg/mL
same,T1/2,[2]; [8],7.3 h and 14.7 h and 10.6 h and 6.1 h
same,Tmax,[2]; [8],2.0 h
same,AUC0?∞,[2]; [9],5.722 µg·h/mL and 5.468 µg·h/mL and 5.843 µg·h/mL
same,Cmax,[2]; [9],0.573 µg/mL and 1.04 µg/mL and 1.02 µg/mL
same,T1/2,[2]; [9],10.1 h and 6.7 h and 7.8 h
same,Tmax,[2]; [9],2.0 h and 0.5 h
same,Kel,"[2]; individual WT M minipigs, single oral 7.3 mg/kg",0.1 h⁻¹
same,AUC0?∞,[2]; [10],3.558 µg·h/mL and 9.926 µg·h/mL and 5.995 µg·h/mL and 5.04 µg·h/mL
same,Cmax,[2]; [10],0.266 µg/mL and 0.621 µg/mL and 0.861 µg/mL and 1.27 µg/mL
same,T1/2,[2]; [10],6.7 h and 10.6 h and 11.8 h
same,Tmax,[2]; [10],5 h and 0.5 h and 2.1 h
same,k el,"[2]; male, minipig, individual NF1 M minipigs, single oral 7.3 mg/kg",2.78e-05 s⁻¹
same,AUC,"[2]; male, minipig, po, 7.3 mg/kg, individual NF1 M minipigs, single oral 7.3 mg/kg",7.93 µg·h/mL
same,Tmax,"[2]; male, minipig, po, 7.3 mg/kg, individual NF1 M minipigs, single oral 7.3 mg/kg, read-out: Tmax",1.1 h
same,half-life,"[2]; male, minipig, po, 7.3 mg/kg, individual WT M minipigs, single oral 7.3 mg/kg",12.3 h
same,k el,"[2]; minipig, all 16 minipigs (WT and NF1), median (range), single oral 7.3 mg/kg",2.78e-05 s⁻¹
same,AUC(0-inf),[2]; [11],5.36 µg·h/mL
same,half-life,[2]; [11],7.9 h
same,Cmax,"[2]; minipig, po, 7.3 mg/kg, all 16 minipigs (WT and NF1), median (range), single oral 7.3 mg/kg, read-out: Cmax",0.657 µg/mL
same,Tmax,"[2]; minipig, po, 7.3 mg/kg, all 16 minipigs (WT and NF1), median (range), single oral 7.3 mg/kg, read-out: Tmax",~1 h
same,AUC(0-inf),[2]; [12],4.8 µg·h/mL
same,half-life,[2]; [12],7.8 h
same,Cmax,"[2]; minipig, po, 7.4 mg/kg, NF1 minipigs, 7.4 mg/kg single oral dose, median (range), read-out: Cmax",0.656 µg/mL
same,Tmax,"[2]; minipig, po, 7.4 mg/kg, NF1 minipigs, 7.4 mg/kg single oral dose, median (range), read-out: Tmax",1.1 h
same,AUC(0-inf),[2]; [13],5.59 µg·h/mL
same,half-life,[2]; [13],9 h
same,Cmax,"[2]; minipig, po, 7.4 mg/kg, WT minipigs, 7.4 mg/kg single oral dose, median (range), read-out: Cmax",0.749 µg/mL
same,maximum tolerated dose,[3]; adult patients with advanced solid malignancy,75 mg
same,maximum tolerated dose,[3]; pediatric patients with plexiform neurofibroma or low-grade glioma,25 mg/m^2
same,confirmed partial response,"[3]; pediatric patients, 25 mg/m^2 twice daily",70 % of pediatric patients
same,p-ERK by IHC in glial cells,"p-ERK; NF1 minipig tissues, treated vs untreated",reduction in ERK phosphorylation
same,treated NF1 animals without reduction in ERK phosphorylation by IHC,"p-ERK; cerebral white matter tracts, NF1 minipigs",4 of 8
same,dose proportionality of selumetinib exposure,"[4]; WT minipigs, from 75 to 300 mg human equivalent dose",dose proportional
same,Cmax,[4]; single oral 300 mg human equivalent dose,1 µg/mL
same,Cmax,[4]; single oral 600 mg human equivalent dose,0.67 µg/mL
